Like-named read-outs stand apart in the source and are kept apart here.
Key:
[1] = tested on: K562 cancer cell (CML cell line); test: Growth inhibition of K562 cancer cell (MTT); type: cell-based; conditions: for IC50: K562, 2 days, MTT; for Improved activity versus Imatinib mesylate: K562
Protocol: In the present experiment, the inhibitory activity of the compound of formula (1) was determined against the growth of K562 cancer cell. First, the cells were allowed to stand in RPMI (Roswell Park Memorial Institute)-1640 medium containing 10% (v/v) fetal bovine serum in an incubator of 37° C. and 5% by volume of CO2. The cancer cells (1000 cells) were transferred to a 96-well plate, and the test compound was diluted. The plate was allowed to stand under the above mentioned conditions for 2 days. […] The supernatant was removed to leave the resulting crystal.

[2] = tested on: pancreatic cancer cell of CAPAN-2; test: Growth inhibition of CAPAN-2 (MTT); type: cell-based; conditions: for Improved activity versus 5-Fu / Improved activity versus cisplatin: CAPAN-2; for IC50: Homo sapiens, Capan-2, read-out: IC50
[3] = tested on: pancreatic cancer cell of PANC-1; test: Growth inhibition of PANC-1 (MTT); type: cell-based; conditions: for IC50: Homo sapiens, read-out: IC50
[4] = tested on: bladder cancer cell of HT-1197; test: Growth inhibition of HT-1197 (MTT); type: cell-based; conditions: for IC50: Homo sapiens, HT1197, read-out: IC50
Protocol: (§1) In the present experiment, the inhibitory activity of the compound of formula (1) was determined against the growth of K562 cancer cell. First, the cells were allowed to stand in RPMI (Roswell Park Memorial Institute)-1640 medium containing 10% (v/v) fetal bovine serum in an incubator of 37° C. and 5% by volume of CO2. The cancer cells (1000 cells) were transferred to a 96-well plate, and the test compound was diluted. The plate was allowed to stand under the above mentioned conditions for 2 days. After this treatment, to the cells was added 0.2% MTT (3-[4,5-dimethylthiazol-2-yl]-2,5-diphenyltetrazolium bromide) solution, and the resulting mixture was allowed to stand under the constant temperature-condition for 4 hours. The supernatant was removed to leave the resulting crystal. DMSO was added to dissolve the crystal, and the absorbance of the solution was measured at 540 nm. IC50 value was calculated using a computer system according to the following formula: […]
(§2) The test was performed according to the same procedure as Experiment 1.

lung cancer cell (A549) = test: Growth inhibition of A549 (MTT); type: cell-based; parameters: IC50 as fraction of that of Imatinib mesylate: unit not given beside the values; conditions: for IC50: Homo sapiens
Protocol: as §1, §2

[5] = tested on: breast cancer cell (MCF-7); test: Growth inhibition of MCF-7 (MTT); type: cell-based; parameters: IC50 as fraction of that of Imatinib mesylate: unit not given beside the values; conditions: for IC50: Homo sapiens, MCF7
Protocol: as §1, §2

[6] = tested on: cervical cancer cell of HeLa229; test: Growth inhibition of HeLa 229 (MTT); type: cell-based; conditions: for IC50: Homo sapiens, read-out: IC50
[7] = tested on: lymphoma cell (RPMI-6666); test: Growth inhibition of RPMI-6666 (MTT); type: cell-based; conditions: for IC50: Homo sapiens
Protocol: as §1, §2

[8] = tested on: colon cancer cell of SNU-C1; test: Growth inhibition of SNU-C1 (MTT); type: cell-based; conditions: for IC50: Homo sapiens, read-out: IC50
[9] = tested on: L1210 cancer cell (leukemia cell line); test: Growth inhibition of L1210 cancer cell (MTT); type: cell-based; conditions: Mus musculus
Protocol: as §1
In the present experiment, the inhibitory activity of the compound of formula (1) was determined against the growth of L1210 cancer cell. The test was performed according to the same procedure as Experiment 1.

[10] = tested on: rectal cancer cell of CMT-93; test: Growth inhibition of CMT-93 (MTT); type: cell-based; conditions: for IC50: CMT93, read-out: IC50
Protocol: as §1, §2

[11] = tested on: encephalophyma cell of A172; test: Growth inhibition of A172 (MTT); type: cell-based; conditions: for IC50: Homo sapiens, A 172, read-out: IC50
Protocol: as §1, §2

[12] = tested on: U937 cancer cell (monocyte like leukemia cell line); test: Growth inhibition of U937 cancer cell (MTT); type: cell-based; conditions: for IC50: Homo sapiens, U-937
Protocol: as §1
In the present experiment, the inhibitory activity of the compound of formula (1) was determined against the growth of U937 cancer cell. The test was performed according to the same procedure as Experiment 1.

[13] = Comparative pharmacokinetic test in white rats; type: in vivo, white rats (Sprague-Dawley); conditions: rat
Protocol: On the previous day to the test, white rats (Sprague-Dawley, 250˜280 g, male) were put under anesthesia by pentobarbital sodium (50 mg/kg, I.P.). Then, cannula (polyethylene tube; diameter: 0.58mm) was introduced into the rats via the carotid artery and jugular vein, and drawn out to the back. After the operation, the rats were fasted for 16 hours and used for the test. […] Blood was collected in 0, 0.5, 1, 1.5, 2, 2.5, 3, 3.5, 4, 4.5, 5, 6, 8, 10, 12, and 24 hours from the carotid artery. The samples for HPLC analysis were prepared using the collected blood according to the following procedure and were analyzed under the following conditions.
Blood was collected by an amount of 0.5 ml at each prearranged time and centrifuged at 15000 rpm for 7 minutes to separate […] of plasma. In order to remove proteins, MeOH was added in an amount of […], twice as much as the amount of plasma, and the mixture was shaken for 30 minutes. The mixture was centrifuged again at 15000 rpm for 5 minutes to give protein free supernatant, which was then analyzed by HPLC.
Flow rate: 1.0 ml/min, UV detection at 267 nm
Column: 4.6×150 mm, 5C18-AR-II, COSMOSIL
Eluent: Mixture of ion pair sample (420 ml) and MeOH (580 ml)
Ion pair sample: 7.5 g of 1-octanesulfonic acid was dissolved in 800 ml of water. The resulting mixture was adjusted to pH 2.5 using phosphoric acid and diluted with water to 1000 ml volume.
Here, the pharmacokinetic parameters are Tmax (time to reach the maximum blood concentration), Cmax (maximum blood concentration), AUC (area under the curve of time-blood concentration), and T1/2 (half time in blood), and the AUC was calculated under trapezoid rule (see Tables 6, 7 and FIGS. 1, 2).

[14] = tested on: prostatic cancer cell (DU-145); test: Growth inhibition of DU-145 (MTT); type: cell-based; parameters: IC50 as fraction of that of Imatinib mesylate: unit not given beside the values; conditions: for IC50: Homo sapiens
Protocol: as §1, §2

[15] = tested on: acute myelogenous leukemia cell (KG-1); test: Growth inhibition of KG-1 (MTT); type: cell-based; conditions: for IC50: Homo sapiens
[16] = Homo sapiens, K562, 48 h, read-out: IC50
[17] = male, Sprague-Dawley, plasma, po, 50 mg/kg, P.O.
[18] = male, Sprague-Dawley, plasma, iv, 50 mg/kg, I.V.

Row | SMILES | IC50 [1, 16] [µg/mL] | Improved activity versus 5-Fu [2] [times] | Improved activity versus cisplatin [2] | IC50 [2] [µg/mL] | Improved activity versus 5-Fu [3] [times] | IC50 [3] [µg/mL] | IC50 [4] [µg/mL] | IC50 (lung cancer cell (A549)) [µg/mL] | IC50 [5] [µg/mL] | IC50 [6] [µg/mL] | IC50 [7] [µg/mL] | Improved activity versus 5-Fu [8] [times] | Improved activity versus Imatinib mesylate [8] | Improved activity versus cisplatin [8] | IC50 [8] [µg/mL] | IC50 [9] [µg/mL] | IC50 [10] [µg/mL] | IC50 [11] [µg/mL] | IC50 [12] [µg/mL] | IC50 [14] [µg/mL] | further results
1 | CS(=O)(=O)O.Cc1ccc(NC(=O)c2ccc(CNN3CCN(C)CC3)cc2)cc1Nc1nccc(-c2cccnc2)n1 [Example 4, 4-(4-methylpiperazin-1-ylaminomethyl)-N-[4-methyl-3-(4-(pyridin-3-yl)pyrimidin-2-yl)aminophenyl]benzamide methanesulfonate] | ≤ 0.1 | 17 | 9 times | 56.3 | 10 | 53.8 | 50.1 | 46.6 | > 50 | 48.5 | 33.8 | 9 | 3 times | 30 times | 10 | 26.9 | 8.39 | 39.3 | 0.9 | 41.3 | IC50 ([1]; methanesulfonate): <0.10 µg/mL; Improved activity versus Imatinib mesylate ([1]; listed as example 4, methanesulfonate): 5 times; Improved activity versus Imatinib mesylate ([1]; methanesulfonate): ≥ 5 times; Improved activity versus Imatinib mesylate [12]: 30 times; Cmax [13, 17]: 3160 ng/mL; Tmax [13, 17]: 2 h; AUC ([13]; male, Sprague-Dawley, plasma, po, 50 mg/kg, P.O., trapezoid rule): 23000 ng·h/mL; AUC relative to Imatinib mesylate ([13]; both per oral 100 mg/kg): about twice; Cmax relative to Imatinib mesylate ([13]; both per oral 100 mg/kg): about twice; IC50 [15]: > 50 µg/mL
2 | CN1CCCN(Cc2ccc(C(=O)Nc3ccc(Nc4nccc(-c5cccnc5)n4)cc3)cc2)CC1.CS(=O)(=O)O [Example 10, 4-(4-methylhomopiperazin-1-ylmethyl)-N-[4-(4-(pyridin-3-yl)pyrimidin-2-yl)aminophenyl]benzamide methanesulfonate] | 3.85 | > 20 | more than 10 times | 45.9 | > 120 | 4.62 | 1.7 | 3.5 | 6.96 | 5.5 | 2.12 | > 80 | more than 25 times | more than 250 times | 1.2 | 3.4 | 4.04 | 5.5 | 7.3 | 5.51 | Improved activity versus Imatinib mesylate [3]: more than 10 times; Improved activity versus cisplatin [3]: more than 9 times; Improved activity versus 5-Fu [4]: > 55 times; Improved activity versus Imatinib mesylate [4]: > 32 times; Improved activity versus cisplatin [4]: more than 4.4 times; IC50 as fraction of that of Imatinib mesylate (lung cancer cell (A549)): 1/10; IC50 as fraction of that of Imatinib mesylate [5]: 1/7; Improved activity versus Imatinib mesylate [6]: more than 8 times; IC50 as fraction of that of Imatinib mesylate [7]: 1/15; Improved activity versus Imatinib mesylate [10]: > 1.5 times; Improved activity versus 5-Fu [11]: more than 18 times; Improved activity versus Imatinib mesylate [11]: more than 8 times; AUC [13, 18]: 8920 ng·h/mL; half-life [13, 18]: 1.37 h; IC50 as fraction of that of Imatinib mesylate [14]: 1/2; IC50 as fraction of that of Imatinib mesylate [15]: 1/10; IC50 [15]: 3.31 µg/mL

From patent US20040248918A1, “N-phenyl-2-pyrimidine-amine derivatives and process for the preparation thereof” (IL YANG PHARM. CO., LTD., priority 2003, published 2004)
